“And” between values parts separate entries of the source, which are not always exact repeats. Equal entries are not always repeated.
B1: Saccharomonospora sp. CNQ-490 Tar13 (tryptophan 2,3-dioxygenase), wild type, SEQ ID NO: 1 (expressed SEQ ID NO: 2) (Saccharomonospora piscinae) (protein)
chain: MTERTATRTEPAYGEILRLDELLELACVNDEADRALFLSAHQACEIWFAVVLRHLEDVTDALSLDDGATAAELLERLPRIITVIIEHFEVLGTLKPEAFDRIRADLGSSSGFQSVQYREIEYLCGARDTRFLNTAGFRDRDRRRLRERLAKRSLSNVFLEYRGRAGDRDACRISDALHEFDDSVRALRLRHAGIAELFLGSIPGTAGTAGAAYLRRSASRTLFPELFDRRASGTGG

Experiments:
Tar14 = Tar14 in vitro halogenation assay with substrate analogues; format: biochemical, Saccharomonospora sp. CNQ-490; settings: substrate 0.25 mM, Tar14 5 μM, 30° C., 4 h; for Enzyme assays, % conversion, Tar14, Br^−: KBr 100 mM; for Enzyme assays, % conversion, Tar14, Cl^−: NaCl 100 mM
Experimental: Tar14. Tar14 reaction mixture of total volume 100 μL in 1.5 mL Eppendorf tube was composed of the following components:
Buffer (10 mM Tris, 10% glycerol, pH 7.6): up to 100 μL

[1] = test system: S. coelicolor M1146-tarM1Δtar14; assay: Feeding/chemical complementation experiment, incorporation into taromycin; format: cell-based, Streptomyces coelicolor; settings: for Feeding, % incorporation, A1 + A13 domain: incorporation at residue-1 and residue-13; for Feeding, % incorporation, A1 + A13 domain / Feeding, % incorporation, A1 domain: analogue fed at 2 mM, judged by comparison to taromycin yields by S. coelicolor M1146-tarM1; for Feeding, % incorporation, A1 domain: incorporation only at residue-1
Experimental: For taromycin production, seed culture in TSBY medium was inoculated with corresponding S. coelicolor spore suspension (collected from fresh SFM plates) and was cultured for 36-48 h till a dense creamy consistency was reached. Kanamycin at 10 μg mL^−1 final concentration was added to the seed cultures of S. coelicolor M1146-pCAP01-tarM1 and S. coelicolor M1146-pCAP01-tarM1Δtar14. Inocula of seed culture (5%, v/v) were used for fermentation in MP medium (1% glucose, 1% soluble starch, 0.4% peptone, 0.3% yeast extract, 0.3% soytone, 0.2% meat extract, 0.2% CaCO3, and 0.5% NaCl, pH 7.2). Fermentation was carried out at 30° C. and 220 rpm in a rotary incubator for 6 days. A maximum of 40 mL of production medium was added into 250 mL flask with metal springs.
S. coelicolor M1146-pCAP01-tarM1Δtar14 cultures were grown as described in Section 3 for taromycin production. After 18 and 36 h of cultivation, tryptophan analogues in the form of water suspension were added to the production cultures to a final concentration 2 mM. The cultures were further incubated for 5 days before extraction and further analysis by LC-HRMS^n. All experiments were repeated independently twice with three replicates for each compound. In parallel, cultures of S. coelicolor M1146-pCAP01-tarM1 and S. coelicolor M1146-pCAP01-tarM1Δtar14 were grown as controls.
To analyze production of taromycins and analogues, solid phase extraction of the culture supernatants was performed with Amberlite XAD-16 resin (SIGMA). For analytical purposes around 1 g of washed and equilibrated resin was added to 20 mL of supernatant followed by shaking for 30-60 min. Samples were then spun down and decanted. The resin was washed twice with water (15 mL), before elution with methanol (5 mL). The methanol extracts from the resin were used for LCMS analysis without additional concentration step.

Tar13 = Tar13 in vitro assay with substrate analogues; format: biochemical, Saccharomonospora sp. CNQ-490; settings: for Enzyme assays, % conversion, Tar13: substrate 0.25 mM, Tar13 20 μM, overnight at 30° C.
Experimental: Tar13. Upon testing different reaction compositions (buffers, concentration of ascorbic acids and hemin, pH), the following conditions were found as optimal:
(§1) Buffer: up to 50 μL (50 mM Tris, 500 mM NaCl 10% glycerol, pH 8.0)
(§2) In a separate Eppendorf tube premix:
Add substrate solution to the enzyme mixture to start reaction
When Tar13 was directly added to the enzyme reaction, immediate protein precipitation occurred. The same was observed if the enzyme was not pre-mixed with hemin and ascorbic acid. Full substrate conversion was achieved after overnight incubation at 30° C. in 1.5 mL Eppendorf tube with shaking. The reactions were quenched by addition of equal volume of HPLC grade methanol.

Tar16 = assay: Coupled Tar13/Tar16 assay (Tar16 substrate generated in situ by Tar13); format: biochemical, Saccharomonospora sp. CNQ-490; settings: for Enzyme assays, % conversion, Tar16: substrates generated in situ by Tar13, Tar16 10 μM, overnight at 30° C.
Experimental: Coupled Tar13 Tar]6. The reaction mixture of total volume 100 μL in 1.5 mL Eppendorf tube was composed of the following components:
Buffer: up to 50 μL (50 mM Tris, 500 mM NaCl 10% glycerol, pH 8.0
Substrate (for Tar13 enzyme): 0.25 μM
as §2
Buffer: up to […] (50 mM Tris, 500 mM NaCl 10% glycerol, pH 8.0)
Add substrate solution to the enzyme mixture to start reaction.
No difference in conversion was observed when Tar16 was added into the assay mixture either together with Tar13, or after 2 h of incubation at 30° C., or after overnight incubation at 30° C., followed by another 4 h of incubation after addition of Tar16. Therefore, for convenience, all components were mixed at the same time point, the reactions were incubated at 30° C. overnight, after which the assays were quenched by addition of equal volume of HPLC grade methanol.

[2] = test system: Tar14, Tar13, and Tar13/16; assay: In vitro assays with Tar14, Tar13, and Tar13/16 (FIG. 20 summary); format: biochemical, Saccharomonospora sp. CNQ-490; settings: Tar14, Tar13, Tar13/16
[3] = substrate: N[C@@H](Cc1c[nH]c2cc(Cl)ccc12)C(=O)O; assay: Kinetic characterization of Tar13-catalyzed oxidation of L-6-Cl-tryptophan; format: biochemical, Saccharomonospora sp. CNQ-490; settings: other: Tar13, L-6-Cl-Trp, 30° C., pH 8.0
Experimental: To determine kinetic parameters for Tar13-catalyzed oxidation of L-6-Cl-tryptophan, the following reaction conditions were used:
as §1, §2
The enzyme mixture was added to the substrate solution to start the reactions. The reactions were incubated at 30° C. for 5, 10, 15, 30 min, after which the assays were quenched by addition of equal volume of HPLC grade methanol and frozen at −70° C. till further analysis by HPLC. All assays were performed in triplicates for each substrate concentration and every time point. In parallel, for each time point and substrate concentration, assays with no added enzyme were used as controls. Prior HPLC analysis (method 5), L-tryptophan was added to the quenched reaction mixtures as an internal standard for quantification.
Product formation was quantitated by calculating decrease of the area of the remaining substrate in comparison to the substrate peak area in the control with no enzyme added, and the ratio of peak areas to internal standard were fitted into a calibration curve to determine product concentrations.

Molecule | Enzyme assays, % conversion, Tar14, Br^− (Tar14) [%] | Enzyme assays, % conversion, Tar14, Cl^− (Tar14) [%] | Enzyme assays, % conversion, Tar13 (Tar13) [%] | Enzyme assays, % conversion, Tar16 (Tar16) [%] | Feeding, % incorporation, A1 domain [1] [%] | further results
Nc1cc(Cl)ccc1C(=O)CC(N)C(=O)O [Compound 1, L-4-chlorokynurenine] | 5 | <1 |  |  |  | 
Nc1ccccc1C(=O)C[C@H](N)C(=O)O [Compound 5, L-kynurenine] | 30 | 30 |  |  |  | 
N[C@@H](Cc1c[nH]c2cc(Cl)ccc12)C(=O)O [Compound 7, L-6-Chlorotryptophan] | <5 |  | 100 | 100 |  | Chemical complementation of taromycin production ([1]; S. coelicolor M1146-tarM1Δtar14 mutant fed with compound): restored taromycin production; Feeding, % incorporation, A1 + A13 domain [1]: 100%; Conversion/activity as substrate for Tar13 (Tar13): complete conversion; Conversion in coupled Tar13/Tar16 reaction (Tar16; Tar16 added to Tar13 reaction): full conversion
N[C@@H](Cc1c[nH]c2ccc(Br)cc12)C(=O)O [Compound 8, L-5-Bromotryptophan] |  | <1 | <1 | 100 | 50 | 
N[C@@H](Cc1c[nH]c2cc(Br)ccc12)C(=O)O [Compound 9, L-6-bromotryptophan] | <1 |  | 100 | 100 |  | Feeding, % incorporation, A1 + A13 domain [1]: 20%
N[C@H](Cc1c[nH]c2ccccc12)C(=O)O [Compound 11, D-tryptophan] | 20 | 15 | <1 | 40 |  | 
N[C@@H](Cc1c[nH]c2cccc(Br)c12)C(=O)O [Compound 12, L-4-bromotryptophan] | <5 | <1 |  |  |  | 
N[C@@H](Cc1c[nH]c2ccc(Cl)cc12)C(=O)O [Compound 14, D/L-5-chlorotryptophan] | <1 | <1 | <1 | 100 | 30 | 
N[C@@H](Cc1c[nH]c2cccc(F)c12)C(=O)O [Compound 15, D/L-4-fluorotryptophan] | 15 | 10 |  |  | 15 | Feeding, % incorporation, A1 + A13 domain [1]: 15%
N[C@@H](Cc1c[nH]c2cc(F)ccc12)C(=O)O [Compound 16, D/L-6-fluorotryptophan] | 25 | 25 | 5 | 100 | <5 | Feeding, % incorporation, A1 + A13 domain [1]: 90%
Cc1cccc2[nH]cc(C[C@H](N)C(=O)O)c12 [Compound 17, D/L-4-methyltryptophan] | 75 | 100 |  |  | 40 | 
Cc1ccc2[nH]cc(C[C@H](N)C(=O)O)c2c1 [Compound 18, D/L-5-methyltryptophan] | 25 | 50 | <1 | 70 | 35 | 
NC(Cc1c[nH]c2ccc([N+](=O)[O-])cc12)C(=O)O [Compound 21, D/L-5-NO2-Trp] |  |  |  |  | 60 | 
NCCc1c[nH]c2ccc(O)cc12 [Compound 22, serotonine] |  |  |  |  |  | Conversion by any of the enzymes [2]: not converted by any of the enzymes
N[C@@H](Cc1ccc(O)cc1)C(=O)O [Compound 23, L-tyrosine] |  |  |  |  |  | Conversion by any of the enzymes [2]: not converted by any of the enzymes
N[C@@H](Cc1ccccc1)C(=O)O [Compound 24, L-phenylalanine] |  |  |  |  |  | Conversion by any of the enzymes [2]: not converted by any of the enzymes
L-5-CH3O-Trp [Compound 19] | <5 | <1 | <1 | 100 | 15 | 
L-5-OH-Trp [Compound 20] | <1 | 5 |  |  | 10 | 
L-7-Br-Trp [Compound 13] | 100 | 100 |  |  | <5 | 
B1 |  |  |  |  |  | Vmax [3]: 0.061 ± 0.006 µM/s; kcat [3]: 0.03 s⁻¹ and 0.031 ± 0.003 s⁻¹
